Test results: PMC3890288, “Toxicity of Functional Nano-Micro Zinc Oxide Tetrapods: Impact of Cell Culture Conditions, Cellular Age and Material Properties” (PLoS ONE, 2014)
Where two headings read alike, the source gives them in different places.

What was measured:
[1] = system: normal human dermal fibroblasts (NHDF); experiment: MTT cell viability (cytotoxicity) assay on NHDF; format: cell-based; conditions: 24 h treatment, expressed as Zn, read-out: ZnCl2 EC50±SE as Zn (converted)
[2] = system: normal human dermal fibroblasts (NHDF); experiment: MTT cell viability (cytotoxicity) assay on NHDF; format: cell-based; conditions: NHDF P6–P9, 50000 cells/cm^2, 24 h treatment
Procedure: Normal human dermal fibroblasts (NHDF) (PromoCell, C12300) were cultured in Quantum 333 (PAA, U15-813) supplemented with 1% (v/v) penicillin/streptomycin (PAA, P11–010). NHDF are human primary cells which were isolated from the dermis of juvenile foreskin or adult skin with different origins (PromoCell). For stock cultures, 750000 cells in 20 ml medium were seeded weekly into a T75 flask (Sarstedt) and kept at 37°C and 5% CO2 in a humidified atmosphere. The medium was changed every two to three days. For sub-culturing, cells were trypsinized by Trypsin/EDTA (PAA, L11-659). Cells were counted under the microscope.
Powder of ZnO-T was scaled and brought for each experiment fresh into dispersion with culture medium at an initial concentration of 10 mg/ml. […]
The MTT assay was used to estimate the viability of cells by measuring the production of formazan mainly through the activity of cellular mitochondrial dehydrogenase. Cell viability was determined accordingly as described in already published paper, [64]. […] Production of formazan by viable cells was estimated after 90 min (37°C, 5% CO2) by measuring the absorbance at a wavelength of 570 nm (photometer 340 ATTC, SLT Lab instruments, Germany). […]
NHDF cells (passage numbers: P10–P14) were seeded into clear flat 96-well microtiter plates (Falcon® 3072) at a cell density of 50.000 cells/cm^2. […] Cell viability was analysed 24 h later. […]

## [Cl-].[Cl-].[Zn+2] [ZnCl2]
[1]; P11–P15, 25000 cells/cm^2
  EC50: 100 µM
[1]; P11–P15, 100000 cells/cm^2
  EC50: 130 µM
[1]; P22–P26, 25000 cells/cm^2
  EC50: 110 µM
[1]; P22–P26, 100000 cells/cm^2
  EC50: 120 µM
[2]
  EC50±standard error: 36 ± 1.4 µg/mL
[2]; expressed as zinc, read-out: EC50±standard error in Zn^2+
  EC50: 130 ± 10 µM
